Patent publication US20230309555A1, “ENVIRONMENTALLY RESPONSIVE TRANS-2-HEXENAL SUSTAINED-RELEASE AGENT, PREPARATION METHOD, AND APPLICATION” (ZHEJIANG UNIVERSITY, priority 2022, published 2023)

Assays:
Botrytis cinerea [1] = test: growth of Botrytis cinerea on potato dextrose agar plate medium; format: cell-based; settings: after 4 days culture at 25 °C
Procedure: Botrytis cinerea lesion with a diameter of 5 mm was inoculated on the center of a potato dextrose agar medium plate. The experiment was performed by seven groups as follows: • a. A BLANK group: nothing was added; • b. A GSH group: 1 g reductive glutathione was added to a lid of a Petri dish and the Petri dish was sealed immediately; • c. A GSH3h group: 1 g reductive glutathione was added to a lid of a Petri dish and then the Petri dish was sealed after being left open for 3 h at room temperature; • d. A Group […]: 20 μL trans-2-hexenal was added to a lid of a Petri dish and the Petri dish was sealed immediately; • e. An E-2-[…] group: 20 μL trans-2-hexenal was added to a lid of a Petri dish and the Petri dish was sealed after being left open for 3 h at room temperature; • f. […] After all groups were sealed completely, the groups were inverted and cultured at 25° C.The growth of Botrytis cinerea was checked regularly.

Botrytis cinerea [2] = settings: strawberries injected with 4 µL of 5×10^5 cfu/mL Botrytis cinerea; 6 g product at bottom of fresh-keeping box; room temperature
Procedure: Strawberries which were harvested at the same maturity, similar in size and without any infestation with insects or pets and damage, were selected. The strawberries were surface-sterilized by immersing in 0.5% (v/v) sodium hypochlorite for 5 min, then washed with sterile water to remove residues and dried at room temperature. The strawberries were randomly divided into 2 groups, each group including 33 strawberries, and then packed into a certain volume of fresh-keeping boxes (11 strawberries per box). In group a, 4 µL of 5×10^5cfu/mL of Botrytis cinerea solution was injected into the equatorial part of the strawberry. […] The experiment was conducted at room temperature and the strawberries were observed daily for decay, and the diameter of the lesions was measured daily.

[3] = 0.05 g product, sealed vial 7 d; 4, 25, 45 °C; relative humidity 0%, 30%, 50%, 70%, 85%, 100%
Procedure: 20 mL glass vials were filled with 3 g of silica gel, 3 mL of saturated magnesium chloride solution, 3 mL of saturated potassium carbonate solution, 3 mL of saturated potassium iodide solution, 3 mL of saturated of potassium chloride solution, and 3 mL of pure water and then sealed until reaching relative humidity of 0%, 30%, 50%, 70%, 85% and 100%, respectively, and the mixed solution was balanced at 4° C. for 1 h. 0.05 g product was weighed and placed in a 2 mL glass vial, then transferred to the 20 mL glass vial and sealed for 7 d, and the release amount was measured every day.
20 mL glass vials were filled with 3 g of silica gel, 3 mL of saturated magnesium chloride solution, 3 mL of saturated potassium carbonate solution, 3 mL of saturated potassium iodide solution, 3 mL of saturated potassium chloride solution, and 3 mL of pure water until reaching relative humidity of 0%, 30%, 50%, 70%, 85% and 100%, respectively, and the mixed solution was balanced at 25° C. for 1 h. 0.05 g product was weighed in a 2 mL glass vial, then transferred to the 20 mL glass vial and sealed for 7 d, and the release amount was measured every day. […]

[4] = Petri dish sealed after being left open for 3 h at room temperature
[5] = Petri dish sealed immediately after addition

| Compound | lesion diameter of Botrytis cinerea on plate medium (Botrytis cinerea [1]; [4]) | lesion diameter of Botrytis cinerea on plate medium (Botrytis cinerea [1]; [5]) | bacterial inhibition (incidence of fruit gray mold) (Botrytis cinerea [2]) | growth diameters of the lesion of fruit (Botrytis cinerea [2]) | difference in bacterial inhibition results between group sealed immediately and group sealed after being left open for 3 h (Botrytis cinerea [1]; 1 g product) | release rate of trans-2-hexenal from the products [3] |
| --- | --- | --- | --- | --- | --- | --- |
| N[C@@H](CCC(=O)N[C@@H](CS)C(=O)NCC(=O)O)C(=O)O [reductive glutathione] | not significantly different from the blank group | not significantly different from the blank group |  |  |  |  |
| CCC/C=C/C=O [trans-2-hexenal] | larger than that of the glutathione/trans-2-hexenal addition product group | significantly lower lesion diameter than other groups |  |  |  |  |
| CCCC(CC=O)SC[C@H](NC(=O)CC[C@H](N)C(=O)O)C(=O)NCC(=O)O (stereo partly shown) | significantly smaller than that of the blank group | significantly smaller than that of the blank group | better than the control group | lower than that of the control group | little difference | increased with the increase in relative humidity and temperature |
